The subject of data set [1] is binding of human VEGF to its receptor on A549 cells. Briefly: Angiogenic potential: binding of human VEGF to its receptors on A549 cells (anti-VEGF immunofluorescence, confocal). It counts as cell-based. The method, then: The angiogenic potential of compound was tested by binding human VEGF to its putative receptors. Human lung epithelial cells (A549 which are highly metastatic and therefore angiogenic in nature) were grown on coverslip in DMEM/F-12 (1:1) or RPMI 1640 media supplemented with 10% FBS, insulin (0.1 units/ml), L-glutamine (2 mM), sodium pyruvate (100 μg/ml), non-essential amino acids (100 μM), penicillin (100 units/ml) and streptomycin ([…]). Cells were incubated at 37° C. in a humidified atmosphere of 5% CO2. The pH of the medium was maintained at 6.2 for the binding assay of VEGF to its receptor in the presence of compound. The cells were pre-treated with media alone or with 25 μg/ml compound for 30 min. The cells were then incubated with 10 ng/ml human VEGF for further 30 min at 37° C. in a humidified atmosphere of 5% CO2. The cells were fixed and stained with anti-VEGF antibody coupled with Alexaflour 488. The cells were visualized in Zeiss-confocal microscope.

For data set [2], the system named is primary cells or cell lines from various origin (human cell lines). Briefly: In vitro toxicity screening of primary cells or cell lines, Trypan blue-exclusion viability test. It counts as cell-based. The method, then: To study the toxic effects of compound, a wide spectrum of primary cells or cell lines from various origin were screened for viability, using Trypan blue-exclusion test. Cells were grown in cultures in DMEM/F-12 (1:1) or RPMI 1640 media supplemented with 10% FBS, insulin (0.1 units/ml), L-glutamine (2 mM), sodium pyruvate (100 μg/ml), non-essential amino acids (100 μM), penicillin (100 units/ml) and streptomycin ([…]). Cells were incubated at 37° C. in a humidified atmosphere of 5% CO2.
Different cells from different origins were cultured in vitro. Various doses of GC-S were added in culture medium. After 24 h number of surviving cells was counted. Each experiment was performed in triplicate and the values agreed well with those of independent experiments

The subject of another data set is Swiss albino mice. Briefly: Systemic toxicity in mice: serum toxicity marker enzymes (GOT, GPT, ALP). The settings on record: doxorubicin 5 mg/kg body weight. The protocol: All animal experiments were performed following ‘Principles of laboratory animal care’ (NIH publication No. 85-23, revised in 1985) as well as specific Indian laws on ‘Protection of Animals’ under the provision o authorized investigators. Swiss albino mice (˜20 g each; 10-12 weeks old; 3 mice in each group) were randomly divided into (i) untreated set (i.v. injected with PBS as vehicle only) and (ii) drug-treated set (Compound of this invention 0.1, 0.3, 1.0, 3.0, 10 and 30 mg/kg body weight) for 14 days. Untreated mice received sterile PBS as carrier vehicle. Doxorubicin (5 mg/kg body weight) was used as positive control for toxicity assays.
For statistical analysis, one-way analysis of variance (ANOVA) was conducted, followed by the Newman-Keuls multiple comparison test. Mean differences with p<0.05 were considered statistically significant.
Hepato and cardio toxicity due to drug regimens are the shortfall in many instances. The serum levels of GOT, GPT and ALP are clinical indicators of drug-induced toxicity. Blood samples were collected from the retro-orbital plexus of normal and the subject compound-treated mice. Total serum glutamate oxaloacetate transaminase ([…]), glutamate pyruvate transaminase (SGPT), and alkaline phosphate were assayed according to standard protocols.
Serum GOT, GPT and ALP activities as a marker of systemic toxicity were measured from blood of untreated or treated mice.

For `NCCCCC(N)C(=O)O` (stereo not drawn) [Compound of this invention], in data set [1] (A549 cells pre-incubated with 25 μg/ml compound 30 min, then 10 ng/ml human VEGF 30 min, pH 6.2), the “Increase of binding of VEGF to its receptor” value is listed as 10-15 times. The “VEGF binding on the membrane of normal A549 cell after compound treatment” value in data set [1] (A549 cells, compound alone, no added VEGF) is “remains unaltered”. In data set [2] (100 and 200 μg/mL doses, below significant killing), the Toxicity to cells entry is “mild toxicity”. Moreover, the “Toxic effects on cells” value in data set [2] (doses 12.5 to 200 μg/mL range) is listed as “no toxic effects”. The “Percent of cell killing” value in data set [2] (up to 50 μg/mL doses, 24 h, Trypan blue exclusion) is “less than 5%”.

Regarding `COc1cccc2c1C(=O)c1c(O)c3c(c(O)c1C2=O)C[C@@](O)(C(=O)CO)C[C@@H]3O[C@H]1C[C@H](N)[C@H](O)[C@H](C)O1` [Doxorubicin], in the data set with Swiss albino mice, the ALP stood at 43 KA units, the SGOT came to 79 IU/dL and the SGPT came to 68 IU/dL. Further, the “Levels of serum GOT and GPT” value in the data set on Swiss albino mice (positive control, p<0.05) was “significantly increased”.

For the origin of these results see patent publication US20100280120A1, “COMPOUND INDUCING ANGIOGENESIS RESPONSE IN ISCHAEMIC TISSUES” (Green Cross Therapeutics Private Limited, priority 2007, published 2010).
